From patent publication US10369138B2, “Monobactam organic compounds for the treatment of bacterial infections” (Novartis AG, priority 2014, dated 2019)
In brackets after ≈: the same amount, converted by molar mass.

Columns and labels:
[1] = tested on: E. coli containing KPC-2; experiment: MIC by broth microdilution, E. coli containing KPC-2 (Ec KPC2 Iso); type: cell-based; details: Escherichia coli, read-out: Ec KPC2 Iso (MIC), E. coli containing KPC-2 (carbapenemase from Klebsiella pneumoniae)
Method in brief: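 Host E. coli BW25113 pspB carrying multicopy pBAD18-kan plasmid with constitutive TEM-promoter KPC-2 expression (periplasmic signal sequence); broth microdilution per CLSI in cation-adjusted Mueller-Hinton broth, inoculum ~5×10^5 CFU/mL, compounds twofold serially diluted from DMSO masters (10% DMSO in dilution series added).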

[2] = tested on: E. coli strain 25922; experiment: MIC by broth microdilution, E. coli strain 25922; type: cell-based; details: Escherichia coli, 25922, E. coli strain 25922; read-out: Ec 25922 (MIC)
Method in brief: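 CLSI broth microdilution in cation-adjusted Mueller-Hinton broth, inoculum about 5×10^5 CFU/mL, 10% DMSO from the diluted series, 20 h at 35-37° C. MIC is the lowest concentration preventing visible growth, read by eye and at 600 nm.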

Compound	MIC [1] [µg/mL]	MIC [2] [µg/mL]
CC(C)(O/N=C(\C(=O)N[C@@H]1C(=O)N(S(=O)(=O)O)[C@@H]1Cn1cc(CCN)nn1)c1csc(N)n1)C(=O)O [Example 41, 2-(((Z)-(2-(((2R,3S)-2-((4-(2-aminoethyl)-1H-1,2,3-triazol-1-yl)methyl)-4-oxo-1-sulfoazetidin-3-yl)amino)-1-(2-aminothiazol-4-yl)-2-oxoethylidene)amino)oxy)-2-methylpropanoic acid]	2 (≈ 3.67 µM)	1 (≈ 1.83 µM)
NCC(=O)NCc1cnn(C[C@@H]2[C@H](NC(=O)/C(=N\OC3(C(=O)O)CC3)c3csc(N)n3)C(=O)N2S(=O)(=O)O)n1 [Example 134, 1-(((Z)-(2-(((2R,3S)-2-((4-((2-aminoacetamido)methyl)-2H-1,2,3-triazol-2-yl)methyl)-4-oxo-1-sulfoazetidin-3-yl)amino)-1-(2-aminothiazol-4-yl)-2-oxoethylidene)amino)oxy)cyclopropanecarboxylic acid]	0.25 (≈ 0.426 µM)	0.5 (≈ 0.852 µM)
CC(C)(O/N=C(\C(=O)N[C@@H]1C(=O)N(S(=O)(=O)O)[C@@H]1Cn1ncc(CC#N)n1)c1csc(N)n1)C(=O)O [Example 33, 2-(((Z)-(1-(2-aminothiazol-4-yl)-2-(((2R,3S)-2-((4-(cyanomethyl)-2H-1,2,3-triazol-2-yl)methyl)-4-oxo-1-sulfoazetidin-3-yl)amino)-2-oxoethylidene)amino)oxy)-2-methylpropanoic acid]	2 (≈ 3.69 µM)	2 (≈ 3.69 µM)
N=C(N[C@@H]1CCNC1)c1ccc(OC[C@H](O/N=C(\C(=O)N[C@@H]2C(=O)N(S(=O)(=O)O)[C@@H]2Cn2cncn2)c2csc(N)n2)C(=O)O)cc1 [Example 73, (S)-2-(((Z)-(2-(((2R,3S)-2-((1H-1,2,4-triazol-1-yl)methyl)-4-oxo-1-sulfoazetidin-3-yl)amino)-1-(2-aminothiazol-4-yl)-2-oxoethylidene)amino)oxy)-3-(4-(N—((R)-pyrrolidin-3-yl)carbamimidoyl)phenoxy)propanoic acid]	0.25 (≈ 0.361 µM)	0.25 (≈ 0.361 µM)
N=C(NCc1cnn(C[C@@H]2[C@H](NC(=O)/C(=N\OC3(C(=O)O)CC3)c3csc(N)n3)C(=O)N2S(=O)(=O)O)n1)N[C@H]1C[C@H](N)C1 [Example 125, 1-(((Z)-(2-(((2R,3S)-2-((4-((3-((1 r,3R)-3-aminocyclobutyl)guanidino)methyl)-2H-1,2,3-triazol-2-yl)methyl)-4-oxo-1-sulfoazetidin-3-yl)amino)-1-(2-aminothiazol-4-yl)-2-oxoethylidene)amino)oxy)cyclopropanecarboxylic acid]	0.5 (≈ 0.78 µM)	0.25 (≈ 0.39 µM)
N=C(NCCN)NCc1cnn(C[C@@H]2[C@H](NC(=O)/C(=N\OC3(C(=O)O)CC3)c3csc(N)n3)C(=O)N2S(=O)(=O)O)n1 [Example 129, 1-(((Z)-(2-(((2R,3S)-2-((4-((3-(2-aminoethyl)guanidino)methyl)-2H-1,2,3-triazol-2-yl)methyl)-4-oxo-1-sulfoazetidin-3-yl)amino)-1-(2-aminothiazol-4-yl)-2-oxoethylidene)amino)oxy)cyclopropanecarboxylic acid]	1 (≈ 1.63 µM)	0.5 (≈ 0.814 µM)
Nc1nc(/C(=N/OC2(C(=O)O)CC2)C(=O)N[C@@H]2C(=O)N(S(=O)(=O)O)[C@@H]2Cn2ncc(CN[C@@H]3CCNC3)n2)cs1 [Example 89, 1-(((Z)-(1-(2-aminothiazol-4-yl)-2-oxo-2-(((3S,4R)-2-oxo-4-((4-(((R)-pyrrolidin-3-ylamino)methyl)-2H-1,2,3-triazol-2-yl)methyl)-1-sulfoazetidin-3-yl)amino)ethylidene)amino)oxy)cyclopropanecarboxylic acid]	1 (≈ 1.67 µM)	0.5 (≈ 0.835 µM)
CC(C)(O/N=C(\C(=O)N[C@@H]1C(=O)N(S(=O)(=O)O)[C@@H]1CN1C[C@H](CNC(=N)N)OC1=O)c1csc(N)n1)C(=O)O [Example 59, 2-(((Z)-(1-(2-aminothiazol-4-yl)-2-(((2R,3S)-2-(((S)-5-(guanidinomethyl)-2-oxooxazolidin-3-yl)methyl)-4-oxo-1-sulfoazetidin-3-yl)amino)-2-oxoethylidene)amino)oxy)-2-methylpropanoic acid]	16 (≈ 27 µM)	16 (≈ 27 µM)
CC(C)(O/N=C(\C(=O)N[C@@H]1C(=O)N(S(=O)(=O)O)[C@@H]1Cn1ncc(C[N+]2(C)CCCC2)n1)c1csc(N)n1)C(=O)O [Example 36, (2R,3S)-3-((Z)-2-(2-aminothiazol-4-yl)-2-(((2-carboxypropan-2-yl)oxy)imino)acetamido)-2-((4-((1-methylpyrrolidin-1-ium-1-yl)methyl)-2H-1,2,3-triazol-2-yl)methyl)-4-oxoazetidine-1-sulfonate]	1	2
CC(C)(O/N=C(\C(=O)N[C@@H]1C(=O)N(S(=O)(=O)O)[C@@H]1CN1C(=O)CCC1=O)c1csc(N)n1)C(=O)O [Example 121, 2-(((Z)-(1-(2-aminothiazol-4-yl)-2-(((2R,3S)-2-((2,5-dioxopyrrolidin-1-yl)methyl)-4-oxo-1-sulfoazetidin-3-yl)amino)-2-oxoethylidene)amino)oxy)-2-methylpropanoic acid]	0.25 (≈ 0.469 µM)	0.25 (≈ 0.469 µM)
CC(C)(O/N=C(\C(=O)N[C@@H]1C(=O)N(S(=O)(=O)O)[C@@H]1Cn1ncc(CN)n1)c1csc(N)n1)C(=O)O [Example 52, 2-(((Z)-(2-(((2R,3S)-2-((4-(aminomethyl)-2H-1,2,3-triazol-2-yl)methyl)-4-oxo-1-sulfoazetidin-3-yl)amino)-1-(2-aminothiazol-4-yl)-2-oxoethylidene)amino)oxy)-2-methylpropanoic acid]	1 (≈ 1.88 µM)	0.5 (≈ 0.941 µM)
CN(C)Cc1cnn(C[C@@H]2[C@H](NC(=O)/C(=N\OC(C)(C)C(=O)O)c3csc(N)n3)C(=O)N2S(=O)(=O)O)n1 [Example 99, 2-(((Z)-(1-(2-aminothiazol-4-yl)-2-(((2R,3S)-2-((4-((dimethylamino)methyl)-2H-1,2,3-triazol-2-yl)methyl)-4-oxo-1-sulfoazetidin-3-yl)amino)-2-oxoethylidene)amino)oxy)-2-methylpropanoic acid]	4 (≈ 7.15 µM)	2 (≈ 3.57 µM)
C[C@H](O/N=C(\C(=O)N[C@@H]1C(=O)N(S(=O)(=O)O)[C@@H]1Cn1cncn1)c1csc(N)n1)C(=O)O [Example 29, (S)-2-(((Z)-(2-(((2R,3S)-2-((1H-1,2,4-triazol-1-yl)methyl)-4-oxo-1-sulfoazetidin-3-yl)amino)-1-(2-aminothiazol-4-yl)-2-oxoethylidene)amino)oxy)propanoic acid]	1 (≈ 2.05 µM)	0.25 (≈ 0.512 µM)
C[C@H](NCCCN)c1cnn(C[C@@H]2[C@H](NC(=O)/C(=N\OC3(C(=O)O)CC3)c3csc(N)n3)C(=O)N2S(=O)(=O)O)n1 [Example 146, 1-(((Z)-(2-(((2R,3S)-2-((4-((S)-1-((3-aminopropyl)amino)ethyl)-2H-1,2,3-triazol-2-yl)methyl)-4-oxo-1-sulfoazetidin-3-yl)amino)-1-(2-aminothiazol-4-yl)-2-oxoethylidene)amino)oxy)cyclopropanecarboxylic acid]	0.5 (≈ 0.832 µM)	0.5 (≈ 0.832 µM)
NCc1cn(C[C@@H]2[C@H](NC(=O)/C(=N\OC3(C(=O)O)CC3)c3csc(N)n3)C(=O)N2S(=O)(=O)O)nn1 [Example 27, 1-(((Z)-(2-(((2R,3S)-2-((4-(aminomethyl)-1H-1,2,3-triazol-1-yl)methyl)-4-oxo-1-sulfoazetidin-3-yl)amino)-1-(2-aminothiazol-4-yl)-2-oxoethylidene)amino)oxy)cyclopropanecarboxylic acid]	0.125 (≈ 0.236 µM)	≤ 0.06
